Results as given in patent US20060228412A1, “(-)-Hydroxycitric acid for delaying gastric emptying” (priority 2003, published 2006).

Legend:
[1] = cited from earlier work
[2] = at the end of 80 days; cited from earlier work
[3] = tested on: [3H]-5-HT uptake; conditions: isolated rat brain cortical slices; cited from earlier work
[4] = mice on a 10% sucrose diet; cited from earlier work
[5] = Multi-week pilot open clinical weight loss trial with extremely obese patients; assay type: in vivo, human
Description: In the present studies, data on human usage emerged from a multi-week pilot open clinical weight loss trial with extremely obese patients which was undertaken to gauge the effects of a pouch delivery form of a potassium salt of HCA under the normal circumstances faced in clinical practice with this patient population. Sixteen patients were enrolled, three of whom were diabetics on medications and several others who were suspected of suffering from insulin resistance. The patients ingested 3-4 grams of HCA (in the form of the potassium salt) per day in two divided doses. Aside from being informed that they must eat a carbohydrate-containing meal within one hour of taking the HCA and that they should avoid eating late in the day, they were not instructed to follow any special diet or exercise plan outside their normal habits and no caloric restriction was imposed. This particular form of potassium HCA delivery typically was mixed into water or juice and consumed at mid-morning and mid-afternoon. The delivery was a water-soluble immediate release form. It was a pre-commercial preparation and nearly all of the patients complained regarding the inconvenience and poor taste of the product, albeit there were no other issues of tolerability.
A number of patients continued on the program for 6 weeks. However, most patient data was good for only 3 weeks because two of the diagnosed diabetics experienced severe hypoglycemic reactions. […] Two patients subsequently were placed on phentermine. […] The average weight loss over the 3 week period for these 14 patients was approximately 3.1 pounds per person per week. […] At therapeutically effective dosages, HCA probably should be used with diabetic populations only under a physician's care.

[6] = Blood glucose after HCA meal replacement releasing only in the small intestine; assay type: in vivo, human
Description: In Example 1, the HCA was delivered in an immediate-release preparation. Our unexpected findings with regard to blood sugar led to the hypothesis that a relatively large dose of HCA might affect blood sugar levels in an individual whose blood sugar is in the low normal range. A dose of 1.5 grams HCA derived from potassium HCA and delivered in a special coated form designed to bypass interaction with stomach acids and to release only in the higher pH of the small intestine was used. A potassium HCA salt granulate was prepared according to Example 1 found in U.S. Pat. No. 6,447,807 and delivered via a dry powdered meal replacement designed to be mixed with liquid to provide 1.5 grams of HCA per 350 calories plain (mixed with water) or approximately 500 calories with milk. […] The subject ate a 500 calorie breakfast consisting the experimental HCA meal replacement. Two hours after this meal, subject's blood glucose level had dropped to 77 mg/dL. […] This finding seemed paradoxical in that the outstanding metabolic effect, which might be thought to indicate blood levels of the drug, was not matched by even a normal level of feelings of fullness. This implied that at least part of the satiation induced by HCA comes about prior to entry of the compound into the blood. […]

[7] = Capsaicin-HCA interaction satiety test; assay type: in vivo, human; conditions: 5 individuals, approximately 2 grams in water about an hour before a meal; before red pepper sauce
Description: The meal itself began with a soup course. […] At this point, bottles of red pepper sauce were supplied and the sauce was applied liberally. […] As is true of Example 3, this provides indirect evidence that HCA acts upon a CCK-related mechanism in inducing satiety.

[8] = Immediacy of HCA-induced satiety, lemonade-like drinks prior to a meal; assay type: in vivo, human; conditions: 5 individuals, approximately 2 grams in sweetened lemonade-like drinks, 16-24 ounces, about 200 calories
Protocol: To test this theory, and the palatability of an HCA salt when mixed with various flavors, a study was conducted in which 5 individuals consumed approximately 2 grams potassium HCA mixed in sweetened lemonade-like drinks prior to a meal. Consumption of the drinks took place over the course of approximately one half hour and involved 16-24 ounces of fluid, but only about 200 calories.

| SMILES | Reduction in food consumption ([1]; experimental animals fed a high-sugar diet, single large oral dose or two divided oral doses) [%] | Minimum effective dose, once per day ([1]; oral, once per day) [mmol/kg] | Minimum effective dose, twice per day ([1]; oral, twice per day) [mmol/kg] | Net reduction in food intake compared with controls [2] [%] | Reduction in weight gain [2] [%] | [3H]-5-HT uptake [3] | Leptin/white adipose tissue ratio compared with control [4] | Serum insulin compared with control [4] | Serum leptin compared with control [4] | Average weight loss ([5]; 3 week period, 14 patients, 3-4 grams HCA per day in two divided doses, immediate release pouch form) | Blood pressure ([5]; eight patients with hypertension) | Effect on blood sugar in diabetics ([5]; immediate release format, two diagnosed diabetics had severe hypoglycemic reactions) | Weight loss of one patient ([5]; over 10 weeks) [pounds] | Appetite suppression ([5]; several patients) | Anorectic action / feelings of fullness ([6]; delivery to the small intestine, by-passing the stomach) | Blood glucose level ([6]; two hours after 500 calorie meal with 1.5 grams HCA, coated form released in small intestine, fasting level before 85 mg/dL, one subject) [mg/dL] | Feeling of fullness [7] | Satiety [8] |
| --- | --- | --- | --- | --- | --- | --- | --- | --- | --- | --- | --- | --- | --- | --- | --- | --- | --- | --- |
| O=C(O)CC(O)(C(=O)O)C(O)C(=O)O (single isomer, unassigned; (-)) [HCA, (−)-hydroxycitric acid] | ≥ 10 | 2.63 | 0.33 | 4 | 78 | inhibit | lower | lower | lower |  |  |  |  |  |  |  |  |  |
| O=C([O-])CC(O)(C(=O)[O-])C(O)C(=O)[O-].[K+].[K+].[K+] (stereo not drawn) [potassium HCA] |  |  |  |  |  |  |  |  |  | approximately 3.1 pounds per person per week | normalize blood pressure | strong hypoglycemic effect | 32 | good appetite suppression | blunt the anorectic actions | 77 | felt full very soon | satiated soon after the meal began |
